Tests used:
Assay type in all cases: in vivo, human
[1] = test system: Cushing's syndrome patients; experiment: Cushing's syndrome patient study: bone markers; parameters: Serμm Bone Alkaline Phosphatase mean change from Baseline to Last Observed: unit not given here; details: All Subjects
Excerpt: All patients gave informed consent before participating in any study-related procedures. […] The study protocol called for patient visits to the study site at screening, on Day 1 (baseline), Weeks 2, 4, 6, 8, 10, and 12, and after a 4-week follow-up period for Group 1. For Group 2, the protocol called for patient visits to the study site at screening, on Day 1 (baseline), Weeks 2, 4, 6, 8, 10, 12, 14, and 16, and after a 4-week follow-up period. Patient dosing will be done at home, except on days of study visits. […] It ignores noncompliance, protocol deviations, withdrawal, and anything that happens after randomization. In contrast, per-protocol (PP) analysis refers to inclusion in the analysis of only those patients who strictly adhered to the protocol. The PP analysis provides an estimate of the true efficacy of an intervention, i.e., among those who completed the treatment as planned.

[2] = test system: Cushing's syndrome patients; experiment: Phase 2 CORT125134-451 study in Cushing syndrome: overall clinical efficacy
Protocol: All patients gave informed consent before participating in any study-related procedures. […] Response criteria for hyperglycemia were changes from baseline in glucose tolerance as measured by: ≥0.5% decrease in HbA1c, normalization or ≥50 mg/dL decrease in 2-hr OGTT glucose, or decrease in total daily insulin (≥25%) or sulfonylurea dose (≥50%). Response criteria for hypertension (HTN) was a ≥5 mm Hg decrease in mean systolic and/or diastolic blood pressure (SBP/DBP). […] The efficacy of the drug in Cushing syndrome was assessed based on the improvement of morbidities associated with excess cortisol activity, e.g. hyperglycaemia, hypertension, cognitive dysfunction, depression, poor quality of life, hypercoagulopathy and obesity. (A morbidity associated with excess cortisol, e.g., associated with hypercortisolemia, Cushing's syndrome, Cushing's disease, etc., is also termed a “comorbidity”.)

[3] = test system: Cushing's syndrome patients; experiment: Cushing's syndrome patient study: absolute eosinophils and lymphocytes; details: All Subjects, mITT
Excerpt: All patients gave informed consent before participating in any study-related procedures. […] The study protocol called for patient visits to the study site at screening, on Day 1 (baseline), Weeks 2, 4, 6, 8, 10, and 12, and after a 4-week follow-up period for Group 1. For Group 2, the protocol called for patient visits to the study site at screening, on Day 1 (baseline), Weeks 2, 4, 6, 8, 10, 12, 14, and 16, and after a 4-week follow-up period. Patient dosing will be done at home, except on days of study visits. […] The safety protocol also included assessments by physical examination findings, vital signs, ECG results, pregnancy tests, clinical laboratory test results (hematology and chemistry panels), adverse events (AEs), and concomitant medications. […] It ignores noncompliance, protocol deviations, withdrawal, and anything that happens after randomization. In contrast, per-protocol (PP) analysis refers to inclusion in the analysis of only those patients who strictly adhered to the protocol. The PP analysis provides an estimate of the true efficacy of an intervention, i.e., among those who completed the treatment as planned.

[4] = mITT, Group 1 (100-200 mg/day, 12 weeks)
[5] = mITT, Group 2 (250-400 mg/day, 16 weeks)
[6] = mPP, Group 1 (100-200 mg/day, 12 weeks)
[7] = mPP, Group 2 (250-400 mg/day, 16 weeks)
[8] = Group 1 (100-200 mg/day, 12 weeks)
[9] = Group 2 (250-400 mg/day, 16 weeks)

Cn1cc(S(=O)(=O)N2CCC3=Cc4c(cnn4-c4ccc(F)cc4)C[C@]3(C(=O)c3cc(C(F)(F)F)ccn3)C2)cn1 [relacorilant, (R)-(1-(4-fluorophenyl)-6-((1-methyl-1H-pyrazol-4-yl)sulfonyl)-4,4a,5,6,7,8-hexahydro-1H-pyrazolo[3,4-g]isoquinolin-4a-yl) (4-(trifluoromethyl)pyridin-2-yl)methanone]
Serμm Bone Alkaline Phosphatase mean change from Baseline to Last Observed [1, 4]: 1.82
Serμm Osteocalcin mean change from Baseline to Last Observed [1, 4]: 4.57 µg/L
Urinary NTx mean change from Baseline to Last Observed [1, 4]: 2.21 nmolBCE/mmol
Serμm Bone Alkaline Phosphatase mean change from Baseline to Last Observed [1, 5]: −1.09
Serμm Osteocalcin mean change from Baseline to Last Observed [1, 5]: 1.33 µg/L
Urinary NTx mean change from Baseline to Last Observed [1, 5]: 0.63 nmolBCE/mmol
Serμm Bone Alkaline Phosphatase mean change from Baseline to Last Observed ([1]; mITT, Overall): 0.41
Serμm Osteocalcin mean change from Baseline to Last Observed ([1]; mITT, Overall): 3 µg/L
Urinary NTx mean change from Baseline to Last Observed ([1]; mITT, Overall): 1.37 nmolBCE/mmol
Serμm Bone Alkaline Phosphatase mean change from Baseline to Last Observed [1, 6]: 1.82
Serμm Osteocalcin mean change from Baseline to Last Observed [1, 6]: 4.68 µg/L
Urinary NTx mean change from Baseline to Last Observed [1, 6]: 2.21 nmolBCE/mmol
Serμm Bone Alkaline Phosphatase mean change from Baseline to Last Observed [1, 7]: −1.09
Serμm Osteocalcin mean change from Baseline to Last Observed [1, 7]: 1.33 µg/L
Urinary NTx mean change from Baseline to Last Observed [1, 7]: 0.63 nmolBCE/mmol
Serμm Bone Alkaline Phosphatase mean change from Baseline to Last Observed ([1]; mPP, Overall): 0.41
Serμm Osteocalcin mean change from Baseline to Last Observed ([1]; mPP, Overall): 3.06 µg/L
Urinary NTx mean change from Baseline to Last Observed ([1]; mPP, Overall): 1.37 nmolBCE/mmol
reduction of the effects of excess cortisol ([2]; Cushing's syndrome patients): effective in reducing many of the effects of excess cortisol
time to improvement in hyperglycaemia and hypertension ([2]; after achieving a therapeutic dose): within two weeks
clinical effect on hyperglycemia and hypertension ([2]; dosages up to 400 mg/day): clinical improvement in hyperglycemia and hypertension
secondary endpoints: hypercoagulopathy, liver function, serum osteocalcin, cognitive function, depression, quality of life ([2]; high-dose group): statistically significant improvements
efficacy relative to previous metyrapone therapy (primary and secondary endpoints) ([2]; two patients treated previously with metyrapone): higher efficacy
Absolute Eosinophils mean change from Baseline to Last Observed [3, 8]: 0.05 10^{super 9
Absolute Lymphocytes mean change from Baseline to Last Observed [3, 8]: −0.15 10^{super 9
Absolute Eosinophils mean change from Baseline to Last Observed [3, 9]: 0.05 10^{super 9
Absolute Lymphocytes mean change from Baseline to Last Observed [3, 9]: 0.26 10^{super 9
Absolute Eosinophils mean change from Baseline to Last Observed ([3]; Overall): 0.05 10^{super 9
Absolute Lymphocytes mean change from Baseline to Last Observed ([3]; Overall): 0.05 10^{super 9
